According to patent publication EP4778918A1, “RADIOACTIVE POSITRON-EMITTING NUCLIDE CARBON-11 LABELED COMPOUND AND RADIOACTIVE COMPOSITION” (The University of Osaka, priority 2023, dated 2025):

Tests used:
[1] = tested on: PD1-/- mice; assay: Determination of therapeutic effect on myocarditis by PET/CT with [^11C]HCA2969 tracer; format: in vivo
Description: Groups of wild-type mice, placebo PD1-/- mice, AJM300-administered PD1-/- mice and anti-VLA-4 neutralizing antibody-administered PD 1-/- mice at 4 weeks of age were prepared. The placebo group was fed a normal diet and the AJM300-administered group was fed a diet containing 1% AJM300 from day 14 to day 28 after the start of rearing. The anti-VLA-4 neutralizing antibody-administered group was fed a normal diet and administered with anti-VLA -4 neutralizing antibody (10 mg/kg) intraperitoneally on days 14 and 21 after the start of rearing. On day 28 after the start of rearing, each mouse was anesthetized with isoflurane (1 to 3% in 2 L of O2) and injected with a [^11C]HCA2969 tracer (1 to 10 MBq: 10 µg of unlabeled HCA2969 containing 10 MBq of PET tracer) via a tail vein. Twenty minutes after the injection, PET/CT imaging was performed for 10 minutes.

[2] = tested on: MRL-Pdcd1-/- mice; assay: Administration of VLA4 inhibitor AJM300 to myocarditis model mice (survival, echocardiography); format: in vivo; conditions: compared with AJM300(-) group
Description: The AJM300 group (+) was administered with a mixed diet containing 1% of AJM300 from 2 weeks of age until death.
At 28 days of age, 9 mice in the AJM300(-) group and 10 mice in the AJM300(+) group were evaluated for cardiac function by echocardiography and then euthanized to collect heart and blood samples.

[3] = tested on: autoimmune myocarditis model rats; assay: Anti-VLA-4 neutralizing antibody or AJM300 administration in rat autoimmune myocarditis model (cardiac function); format: in vivo, Lewis rats; conditions: 21 days after induction of myocarditis; diet with 1% AJM300, or 5 mg/kg antibody intravenously at 0w, 1w, 2w, 3w; compared with placebo group
From the text: Study groups were: placebo group (5 animals), AJM300-administered group (4 animals), and neutralizing antibody-administered group (5 animals) administered with anti-VLA-4-neutralizing antibody. The placebo group was fed a diet mixed with placebo (0.43% METOLOSE + 0.14% Ac-Di-Sol) from 3 days before induction of myocarditis to 3 weeks. The AJM300-administered group was fed a diet mixed with 1% AJM300 from 3 days before induction of myocarditis to 3 weeks. The neutralizing antibody-administered group was intravenously administered with 5 mg/kg of neutralizing antibody at the time of induction of myocarditis (0w), 1 week after induction of myocarditis (1w), 2 weeks after induction of myocarditis (2w), and 3 weeks after induction of myocarditis (3w). Left ventricular contractile performance and heart rate were evaluated 21 days after induction of myocarditis.

[4] = tested on: MRL-Pdcd1-/- and wild-type mice; assay: Detection of myocarditis by PET/CT imaging with [^11C]HCA2969 tracer in mice; format: in vivo; conditions: about 1 to 10 MBq intravenously, days 25 to 26
Description: In the MRL-Pdcd1-/- and wild-type mice prepared in the above section 5, a [^11C]HCA2969 tracer (about 1 to 10 MBq) was administered intravenously via a tail vein under inhalation anesthesia with isoflurane on days 25 to 26, followed by PET/CT imaging.

[5] = biological target: T1, VLA-4 (Mus musculus, UniProt P09055+Q00651); assay: [^11C]HCA2969 binding to VLA-4 in mouse monocytes (saturation, Scatchard analysis); conditions: 2 × 10^6 spleen monocytes
T1 construct: monocytes collected from a spleen of a mouse; endogenous in cells; host or cells: primary monocytes from mouse spleen
Description: Monocytes collected from a mouse were used to evaluate the binding of a [^11C]HCA2969 to VLA-4.
2 × 10^6 monocytes collected from a spleen of a mouse and a [^11C]HCA2969 synthesized in the above section 1 were added to buffer (10mM Tris pH 7.5, 0.1% BSA, 150 mM NaCl, 2 mM MnCl2, 2 mM D-glucose) at concentrations of 0.025 nM, 0.1 nM, 0.4 nM, 1.6 nM, 6.4 nM and 25.6 nM, respectively, and mixed. After mixing, the cells were incubated at room temperature for 20 minutes and washed 2 times with buffer (10mM Tris pH 7.5, 0.1% BSA, 150 mM NaCl, 2 mM MnCl2, 2 mM D-glucose). Radiation dose was measured for the washed cells using a scintillation counter.

[6] = tested on: EAE model mice; conditions: mouse, in vivo
[7] = Stability of the produced [^11C]HCA2969 over time (quality test, radiochemical purity); format: physicochemical; conditions: immediately after synthesis and even 90 minutes after synthesis; final formulation, approximately 10% ethanol in physiological saline
From the text: [^11C]HCA2969 was produced according to the following procedure. A synthesis scheme is shown in FIG. 1. • (1) [^11C]CO2 was produced via nuclear reaction of ^14N(p,α)^11C using N2 gas as a target using a medical cyclotron (CYPRIS HM-18, Sumitomo Heavy Industries, Ltd.). The obtained [^11C]CO2 was introduced into a vapor phase method methyl iodide synthesizer (C-GPC-100, Sumitomo Heavy Industries, Ltd.) to synthesize […] ([^11C]CH3OTf) having high reaction activity. • (2) [^11C]CH3OTf was introduced into a reaction vessel containing 500 µL of a solution of 1 mg/mL HCA2969 precursor (QD) in acetone and 3 µL of 1 mol/L NaOH and subjected to bubbling. • (3) 100 µL of 0.1 mol/L NaOH was added to the solution obtained after the bubbling in the above step (2) and a deprotection reaction was performed at room temperature for 10 minutes. • (4) 1 mL of water for injection was added to the solution obtained after the deprotection in the above step (3), the mixture was mixed thoroughly, and the whole volume was injected into HPLC to fractionate and collect [^11C]HCA2969. A representative HPLC chromatogram is shown in FIG. 2. • (5) The fractionated and collected solution was diluted with water for injection, and the whole volume was introduced into a solid-phase extraction column (HLB column) to retain [^11C]HCA2969. […]

[8] = tested on: EAE mice; conditions: mouse, in vivo
[9] = tested on: autoimmune myocarditis model rat; assay: Detection of autoimmune myocarditis by PET/CT imaging with [^11C]HCA2969 tracer in rats; format: in vivo, Lewis rats; conditions: autoimmune myocarditis model rats at 3 weeks of induction; about 1 to 10 MBq intravenously
Description: An autoimmune myocarditis model rat was prepared by administering 10 mg/ml of Pig Cardiac Myosin (purified in-house from pig heart) and Adjuvant (CFA 10 mg/ml; Chondrex, Inc., 7002) to Lewis rats (male, 8 weeks old). A day of administration of the Pig Cardiac Myosin was set as Day 0. In this model, myocarditis reached its climax on Day 21. […] On Day 12, infiltration of inflammatory cells into cardiac muscle tissue began, and, on Day 19, more intense infiltration of the inflammatory cells was observed. On Day 25, destruction of the cardiac muscle tissue due to inflammation was observed.
In autoimmune myocarditis model rat prepared in the above section 2, a [^11C]HCA2969 tracer at about 1 to 10 MBq was administered intravenously via a tail vein under inhalation anesthesia with isoflurane at 3 weeks of induction, which is the climax of myocarditis, followed by PET/CT imaging.

[10] = echocardiography at 28 days of age, diet containing 1% of AJM300, t-test p=0.0231

T1 sequence (Q00651 41-1039): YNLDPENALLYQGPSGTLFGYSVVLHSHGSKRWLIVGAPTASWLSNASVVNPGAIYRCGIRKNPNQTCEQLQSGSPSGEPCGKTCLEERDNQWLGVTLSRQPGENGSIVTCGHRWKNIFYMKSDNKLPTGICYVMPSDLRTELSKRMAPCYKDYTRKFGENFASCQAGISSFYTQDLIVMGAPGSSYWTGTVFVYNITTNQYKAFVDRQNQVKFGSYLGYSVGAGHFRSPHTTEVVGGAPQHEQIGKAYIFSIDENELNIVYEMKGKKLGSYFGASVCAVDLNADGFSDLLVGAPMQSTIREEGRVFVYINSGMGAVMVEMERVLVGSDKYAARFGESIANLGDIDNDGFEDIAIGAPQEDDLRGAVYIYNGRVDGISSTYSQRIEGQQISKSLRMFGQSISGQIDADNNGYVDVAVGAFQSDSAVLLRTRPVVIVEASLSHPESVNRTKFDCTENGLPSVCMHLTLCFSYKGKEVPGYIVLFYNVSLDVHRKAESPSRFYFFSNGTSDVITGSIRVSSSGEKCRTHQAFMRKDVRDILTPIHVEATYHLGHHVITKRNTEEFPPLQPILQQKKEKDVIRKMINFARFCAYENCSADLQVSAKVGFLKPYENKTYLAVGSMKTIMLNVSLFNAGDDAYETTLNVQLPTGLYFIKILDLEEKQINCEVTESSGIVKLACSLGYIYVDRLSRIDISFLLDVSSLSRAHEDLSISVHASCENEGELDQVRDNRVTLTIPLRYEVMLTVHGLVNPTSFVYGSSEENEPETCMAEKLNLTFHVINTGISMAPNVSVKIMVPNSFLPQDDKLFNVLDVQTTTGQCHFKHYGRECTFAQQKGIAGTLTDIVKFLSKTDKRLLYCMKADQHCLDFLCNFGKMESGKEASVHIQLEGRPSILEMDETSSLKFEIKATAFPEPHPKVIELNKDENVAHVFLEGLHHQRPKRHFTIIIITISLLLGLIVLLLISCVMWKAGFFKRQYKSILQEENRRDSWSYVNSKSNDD
T1 sequence (P09055 21-798): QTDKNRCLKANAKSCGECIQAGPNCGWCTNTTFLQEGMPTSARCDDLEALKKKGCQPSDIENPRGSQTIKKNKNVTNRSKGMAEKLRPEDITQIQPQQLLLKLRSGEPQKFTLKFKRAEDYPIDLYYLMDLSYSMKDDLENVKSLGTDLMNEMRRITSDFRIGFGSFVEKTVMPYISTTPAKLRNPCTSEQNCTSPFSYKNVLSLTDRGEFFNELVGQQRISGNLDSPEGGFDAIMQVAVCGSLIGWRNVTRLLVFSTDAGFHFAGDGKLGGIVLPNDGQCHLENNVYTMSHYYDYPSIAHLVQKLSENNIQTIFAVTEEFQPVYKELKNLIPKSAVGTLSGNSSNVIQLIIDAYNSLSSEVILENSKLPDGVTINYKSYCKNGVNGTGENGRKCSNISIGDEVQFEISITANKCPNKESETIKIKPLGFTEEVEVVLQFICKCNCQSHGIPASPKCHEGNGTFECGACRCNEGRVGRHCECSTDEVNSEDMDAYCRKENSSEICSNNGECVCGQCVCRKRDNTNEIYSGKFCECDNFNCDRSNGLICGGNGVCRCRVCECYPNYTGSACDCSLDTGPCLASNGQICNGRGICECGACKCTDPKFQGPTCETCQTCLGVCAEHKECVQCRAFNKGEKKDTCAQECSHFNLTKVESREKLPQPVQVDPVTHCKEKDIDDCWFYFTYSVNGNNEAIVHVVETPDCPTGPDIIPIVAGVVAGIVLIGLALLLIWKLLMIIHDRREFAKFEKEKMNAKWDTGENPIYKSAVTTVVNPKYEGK

## COC(=O)[C@H](Cc1ccc(-n2c(=O)c3cc(N(C)C)ccc3n(C)c2=O)cc1)NC(=O)c1c(Cl)cccc1Cl [AJM300, carotegrast methyl]
[1]; treated PD1-/- mice compared to the placebo group, diet containing 1% AJM300 day 14 to day 28, or antibody 10 mg/kg intraperitoneally on days 14 and 21
  accumulation of the [^11C]HCA2969 tracer in the cardiac region: lower
[2]; [10]
  heart rate: significantly ameliorated bradycardia
  left ventricular contractile performance: % Fractional Shortening (%): significantly improved
[2]; mixed diet containing 1% of AJM300 from 2 weeks of age, Log-rank test p=0.0022
  Survival period (Kaplan-Meier): significantly prolonged
[3]
  cardiac function (left ventricular contractile performance and heart rate): no effect

## CN(C)c1ccc2c(c1)c(=O)n(-c1ccc(CC(NC(=O)c3c(Cl)cccc3Cl)C(=O)O)cc1)c(=O)n2[11CH3] (stereo not shown) [[^11C]HCA2969]
[4]; two MRL-Pdcd1-/- mice
  tracer accumulation in hearts: observed
[4]; two wild-type mice
  tracer accumulation in hearts: no tracer accumulation
[5]
  Bmax: 81.85 Bq
[5]; 0.025 nM to 25.6 nM, room temperature, 20 minutes, read-out: equilibrium dissociation constant Kd
  Kd: 0.16 nM
[1]; PD1-/- mouse, untreated, day 28, imaging twenty minutes after the injection
  accumulation of the [^11C]HCA2969 tracer in the cardiac region: observed
[6]
  accumulation of the tracer signal in the brain: increasing trend
  accumulation of the tracer signal in the spinal cord: significant increase
[7]
  radiochemical purity: ≥ 90%
[8]
  SUV mean: high accumulation
  SUV median: high accumulation
[9]
  tracer accumulation in hearts: no tracer accumulation
